Measurements taken from patent US12433870B2, “Supramolecular photoprotection of a photosensitizer” (Northwestern University, priority 2019, dated 2025).

Legend:
[1] = Solubility in water / PBS buffer; assay type: physicochemical
[2] = Detection of singlet oxygen (ADPA chemical method, methylene blue reference); assay type: physicochemical; conditions: 20 μM, 630 nm, 50 mW, 20 min
Protocol: Singlet oxygen (^1O2) quantum-yield measurements were conducted by a chemical method. The disodium salt of 9.10-anthracenedipropionic acid (ADPA) was used as singlet oxygen detection reagent with methylene blue used as a reference (Φt=0.53). In this experiment, ADPA (0.1 μmol) was added to the H2O solution of ExBox^4+⊃DPP (20 μM) with a laser irradiation (630 nm, 50 mW) for 20 min, followed by quantification of ^1O2 by the absorbance intensity change (UV-3600 Shimadzu spectrophotometer) at 380 nm of ADPA. The calculation of ^1O2 quantum yield is based on the equality ΦΔ=(ΔAs/[…])Φr. ΔAs is the absorption change of detected photosensitizer, ΔAr is the absorption change of referenced photosensitizer and Φ^r is the quantum yield of singlet oxygen of referenced photosensitizer (methylene blue).
(§1) ADPA (0.1 μmol) was added to the H2O solution of DPPH2^+ (20 μM) with a laser irradiation (630 nm, 50 mW) for 20 min, followed by quantification of the ^1O2 by the absorbance intensity change (UV-3600 Shimadzu spectrophotometer) at 380 nm of ADPA. The calculation of the ^1O2 quantum yield is based on the equality ΦΔ=(ΔAs/ΔAr)Φr where ΔAs is the absorption change of detected photosensitizer, ΔAr is the absorption change of referenced photosensitizer and Φr is the quantum yield of singlet oxygen of referenced photosensitizer (methylene blue). Measured ^1O2 quantum yield of DPPH2^2+ is 0.38 in H2O.
as §1, with “acetone” for “H2O”, “DPP” for “DPPH2^+”, “DPP” for “DPPH2^2+”, “0.43” for “0.38”, “acetone.” for “H2O.”

[3] = test system: A2780 cells; test: In vitro PDT efficacy, MTT assay after visible light irradiation; assay type: cell-based, human; conditions: 10 μM PBS solution, light dose 0.078 J cm^−2
Protocol: A2780 cells (human ovarian cancer cell line) and MCF-7 cells (human breast adenocarcinoma cell line) obtained from Sigma-Aldrich and American Type Culture Collection (ATCC, Rockville, MD, USA), respectively were utilized for cell culture experiments. These cells were cultured in Dulbecco's Modified Eagle's Medium (DMEM) supplemented with 10% fetal bovine serum (FBS), penicillin (100 IU/mL) and streptomycin (100 μg/mL) at 37° C. in the presence of air (95%) and CO2 (5%).
A2780 or MCF-7 cells (2×10^5 cells/mL, 100 μL) were seeded in each well of a black 96-well plate. Stock solution of ExBox^4+⊃DPP in PBS (1 mM, 10 μL) was added to each well to achieve working concentrations and incubated for 12 h. After incubation, wells were washed with PBS, added with 100 μL of DMEM and immediately irradiated with visible light using Max-303 Xenon Light Source (385-740 nm, Asahi Spectra) at different light intensities (5-50 mW) for 1 to 15 min. Following irradiation, cells were incubated overnight and then added with MTT (5 mg/mL in PBS, 10 μL). After 4 h incubation with MTT, media from each well was pipetted out, formazan crystals deposited on the plate were dissolved in 200 μL of Me2SO, and the absorbance of each well was measured using a microplate reader at 560 nm. All the samples were analyzed in quadruplicates.
The percentage cell viability was calculated using the following formula: % cell viability=(OD of treated sample/OD of untreated sample)*100.

[4] = test system: A2780 cells; test: Live cell confocal microscopy, cellular uptake and co-localization; assay type: cell-based, human; conditions: lysosomal uptake, control experiment
Protocol: A2780 cells (1×10^5 cells/mL, 300 μL) were plated in each well of an 8-well μ-slide (ibidi cell focus) and cultured overnight. PBS solution of ExBox^4+⊃DPP was added to each well and incubated for predetermined time points. For cellular co-localization studies, cells were washed with phenol free DMEM and stained with LysoTracker green (lysosome stain, 1:1000 dilution) or MitoSpy™ Green FM (mitochondria stain, 1:2000 dilution) or NucBlue™ Live ReadyProbes™ Reagent (nuclei stain, 1 drop). For the live-dead assay, cells were incubated with PBS solution of ExBox^4+⊃DPP irradiated for 10 min at […] light intensity, incubated overnight, and stained with Calcein AM (2 μM) and Ethidium homodimer-1 (4 μM). Plated cells were imaged within a humidified chamber using a 63× oil-immersion objective on a SP5 Leica Confocal Microscope using HyD detectors and lasers.

[5] = reference photosensitizer; cited from earlier work

C1=Cc2nc1cc1ccc([nH]1)c(-c1ccccc1)c1nc(cc3ccc([nH]3)c2-c2ccccc2)C=C1 [DPP, 5,15-diphenylporphyrin]
solubility in H2O ([1]; H2O): insoluble | solubility in water and PBS buffer ([1]; water and PBS buffer): insoluble | ^1O2 quantum yield ([2]; in acetone): 0.43

C1=Cc2nc1cc1ccc([nH]1)c(-c1ccccc1)c1nc(cc3ccc([nH]3)c2-c2ccccc2)C=C1 [DPPH2^2+, reference compound]
^1O2 quantum yield ([2]; in H2O): 0.38 | cells killed (PDT control experiment) [3]: ~90% | cellular uptake compared with the complex (fluorescence intensity inside cells) [4]: less efficient

CN(C)c1ccc2nc3ccc(=[N+](C)C)cc-3sc2c1 [methylene blue]
^1O2 quantum yield of reference [5]: 0.53
